Test results taken from patent US11590139B2, “Substituted aminopurine compounds, compositions thereof, and methods of treatment therewith” (Signal Pharmaceuticals, LLC, priority 2014, dated 2023).

test system: Lox-IMVI melanoma cell line; experiment: Lox-IMVI anti-proliferative assay (growth inhibition, Cell Titer-Glo); assay type: cell-based, human; conditions: Homo sapiens; Lox-IMVI anti-proliferative assay, IC50 activity level; read-out: Activity
Outline: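 First, compound was dispensed as a 10-point 3-fold series (0.5 nM–10 μM, duplicate). Then cells in RPMI + 10% FBS were added and grown 72 h at 37 °C with 0.2% DMSO. Finally, ATP luminescence was read and IC50 calculated versus DMSO control.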

**Q.** For `COC(=O)N1CCC[C@@H](Nc2ncc3nc(Nc4c(F)cc(Cl)cc4F)n([C@H]4CC[C@@H](C(N)=O)CC4)c3n2)C1` [Example 408, (R)-methyl 3-(9-((1s,4S)-4-carbamoylcyclohexyl)-8-(4-chloro-2,6-difluorophenylamino)-9H-purin-2-ylamino)piperidine-1-carboxylate], which IC50 is on record?
**A.** 500 to 1000 nM

**Q.** With `COC(=O)N1CCC[C@@H](Nc2ncc3nc(Nc4c(Cl)cc(Cl)cc4Cl)n([C@H]4CC[C@@H](C(N)=O)CC4)c3n2)C1` [Example 409, (R)-methyl 3-(9-((1s,4S)-4-carbamoylcyclohexyl)-8-(2,4,6-trichlorophenylamino)-9H-purin-2-ylamino)piperidine-1-carboxylate] as the compound, how does the IC50 read?
**A.** 500 to 1000 nM

**Q.** `COC(=O)N1CCC[C@@H](Nc2ncc3nc(Nc4c(Cl)cc(F)cc4Cl)n([C@H]4CC[C@@H](C(N)=O)CC4)c3n2)C1` [Example 410, (R)-methyl 3-(9-((1s,4S)-4-carbamoylcyclohexyl)-8-(2,6-dichloro-4-fluorophenylamino)-9H-purin-2-ylamino)piperidine-1-carboxylate] was tested. Which IC50 did it give?
**A.** > 1000 nM

**Q.** How did the IC50 turn out when `COC(=O)N1CCC[C@@H](Nc2ncc3nc(Nc4ccc(Cl)c(F)c4F)n([C@H]4CC[C@@H](C(N)=O)CC4)c3n2)C1` [Example 411, (R)-methyl 3-(9-((1s,4S)-4-carbamoylcyclohexyl)-8-(4-chloro-2,3 difluorophenylamino)-9H-purin-2-ylamino)piperidine-1-carboxylate] was run?
**A.** > 1000 nM

**Q.** With `COC(=O)N1CCCC(Nc2ncc3nc(Nc4c(F)cc(Cl)cc4Cl)n([C@H]4CC[C@@H](C(N)=O)CC4)c3n2)C1` (stereo partly drawn) [Example 412, (R)-methyl 3-(9-((1s,4S)-4-carbamoylcyclohexyl)-8-(2,4-dichloro-6-fluorophenylamino)-9H-purin-2-ylamino)piperidine-1-carboxylate] as the compound, how does the IC50 read?
**A.** 250 to 500 nM

**Q.** For `COC(=O)N1CCCC(Nc2ncc3nc(Nc4c(F)ccc(Cl)c4F)n([C@H]4CC[C@@H](C(N)=O)CC4)c3n2)C1` (stereo partly drawn) [Example 413, (R)-methyl 3-(9-((1s,4S)-4-carbamoylcyclohexyl)-8-(3-chloro-2,6-difluorophenylamino)-9H-purin-2-ylamino)piperidine-1-carboxylate], which IC50 is on record?
**A.** > 1000 nM

**Q.** `NC(=O)[C@H]1CC[C@@H](n2c(Nc3c(Cl)cc(Cl)cc3Cl)nc3cnc(N[C@@H]4CCC[C@@H](O)C4)nc32)CC1` [Example 415, (1S,4s)-4-(2-((1R,3R)-3-hydroxycyclohexylamino)-8-(2,4,6-trichlorophenylamino)-9H-purin-9-yl)cyclohexanecarboxamide] was tested. Which IC50 did it give?
**A.** 500 to 1000 nM

**Q.** For `NC(=O)[C@H]1CC[C@@H](n2c(Nc3c(F)cccc3Cl)nc3cnc(N[C@@H]4CCC[C@@H](O)C4)nc32)CC1` [Example 416, (1S,4s)-4-(8-(2-chloro-6-fluorophenylamino)-2-((1R,3R)-3-hydroxycyclohexylamino)-9H-purin-9-yl)cyclohexanecarboxamide], which IC50 is on record?
**A.** > 1000 nM

**Q.** How did the IC50 turn out when `NC(=O)[C@H]1CC[C@@H](n2c(Nc3c(Cl)cccc3Cl)nc3cnc(N[C@@H]4CCC[C@@H](O)C4)nc32)CC1` [Example 417, (1S,4s)-4-(8-(2,6-dichlorophenylamino)-2-((1R,3R)-3-hydroxycyclohexylamino)-9H-purin-9-yl)cyclohexanecarboxamide] was run?
**A.** > 1000 nM

**Q.** `NC(=O)[C@H]1CC[C@@H](n2c(Nc3c(F)cc(F)cc3F)nc3cnc(N[C@@H]4CCC[C@@H](O)C4)nc32)CC1` [Example 418, (1S,4s)-4-(2-((1R,3R)-3-hydroxycyclohexylamino)-8-(2,4,6-trifluorophenylamino)-9H-purin-9-yl)cyclohexanecarboxamide] was tested. Which IC50 did it give?
**A.** > 1000 nM

**Q.** `NC(=O)[C@H]1CC[C@@H](n2c(Nc3c(F)cccc3F)nc3cnc(N[C@@H]4CCC[C@@H](O)C4)nc32)CC1` [Example 419, (1S,4s)-4-(8-(2,6-difluorophenylamino)-2-((1R,3R)-3-hydroxycyclohexylamino)-9H-purin-9-yl)cyclohexanecarboxamide] was tested. Which IC50 did it give?
**A.** > 1000 nM

**Q.** With `NC(=O)[C@H]1CC[C@@H](n2c(Nc3c(F)cc(F)cc3Cl)nc3cnc(N[C@@H]4CCC[C@@H](O)C4)nc32)CC1` [Example 420, (1S,4s)-4-(8-(2-chloro-4,6-difluorophenylamino)-2-((1R,3R)-3-hydroxycyclohexylamino)-9H-purin-9-yl)cyclohexanecarboxamide] as the compound, how does the IC50 read?
**A.** > 1000 nM

**Q.** How did the IC50 turn out when `NC(=O)[C@H]1CC[C@@H](n2c(Nc3c(F)cc(Cl)cc3F)nc3cnc(N[C@@H]4CCC[C@@H](O)C4)nc32)CC1` [Example 421, (1S,4s)-4-(8-(4-chloro-2,6-difluorophenylamino)-2-((1R,3R)-3-hydroxycyclohexylamino)-9H-purin-9-yl)cyclohexanecarboxamide] was run?
**A.** > 1000 nM

**Q.** For `NC(=O)[C@H]1CC[C@@H](n2c(Nc3c(F)cc(Cl)cc3Cl)nc3cnc(N[C@@H]4CCC[C@@H](O)C4)nc32)CC1` [Example 422, (1S,4s)-4-(8-(2,4-dichloro-6-fluorophenylamino)-2-((1R,3R)-3-hydroxycyclohexylamino)-9H-purin-9-yl)cyclohexanecarboxamide], which IC50 is on record?
**A.** 500 to 1000 nM

**Q.** For `NC(=O)[C@H]1CC[C@@H](n2c(Nc3c(Cl)cc(F)cc3Cl)nc3cnc(N[C@@H]4CCC[C@@H](O)C4)nc32)CC1` [Example 423, (1S,4s)-4-(8-(2,6-dichloro-4-fluorophenylamino)-2-((1R,3R)-3-hydroxycyclohexylamino)-9H-purin-9-yl)cyclohexanecarboxamide], which IC50 is on record?
**A.** 500 to 1000 nM

**Q.** `C[C@]1(O)CCC[C@@H](Nc2ncc3nc(Nc4c(Cl)cccc4Cl)n([C@H]4CC[C@@H](C(N)=O)CC4)c3n2)C1` [Example 424, (1S,4s)-4-(8-(2,6-dichlorophenylamino)-2-((1R,3S)-3-hydroxy-3-methylcyclohexylamino)-9H-purin-9-yl)cyclohexanecarboxamide] was tested. Which IC50 did it give?
**A.** > 1000 nM

**Q.** `C[C@]1(O)CCC[C@@H](Nc2ncc3nc(Nc4c(F)cc(F)cc4Cl)n([C@H]4CC[C@@H](C(N)=O)CC4)c3n2)C1` [Example 425, (1S,4s)-4-(8-(2-chloro-4,6-difluorophenylamino)-2-((1R,3S)-3-hydroxy-3-methylcyclohexylamino)-9H-purin-9-yl)cyclohexanecarboxamide] was tested. Which IC50 did it give?
**A.** > 1000 nM

**Q.** For `C[C@]1(O)CCC[C@@H](Nc2ncc3nc(Nc4c(F)cc(Cl)cc4F)n([C@H]4CC[C@@H](C(N)=O)CC4)c3n2)C1` [Example 426, (1S,4s)-4-(8-(4-chloro-2,6-difluorophenylamino)-2-((1R,3S)-3-hydroxy-3-methylcyclohexylamino)-9H-purin-9-yl)cyclohexanecarboxamide], which IC50 is on record?
**A.** > 1000 nM

**Q.** How did the IC50 turn out when `C[C@]1(O)CCC[C@@H](Nc2ncc3nc(Nc4c(F)cc(Cl)cc4Cl)n([C@H]4CC[C@@H](C(N)=O)CC4)c3n2)C1` [Example 427, (1S,4s)-4-(8-(2,4-dichloro-6-fluorophenylamino)-2-((1R,3S)-3-hydroxy-3-methylcyclohexylamino)-9H-purin-9-yl)cyclohexanecarboxamide] was run?
**A.** 500 to 1000 nM

**Q.** Which IC50 does the source give for `C[C@]1(O)CCC[C@@H](Nc2ncc3nc(Nc4c(Cl)cc(F)cc4Cl)n([C@H]4CC[C@@H](C(N)=O)CC4)c3n2)C1` [Example 428, (1S,4s)-4-(8-(2,6-dichloro-4-fluorophenylamino)-2-((1R,3S)-3-hydroxy-3-methylcyclohexylamino)-9H-purin-9-yl)cyclohexanecarboxamide] here?
**A.** > 1000 nM

**Q.** `C[C@]1(O)CCC[C@@H](Nc2ncc3nc(Nc4ccc(F)cc4Cl)n([C@H]4CC[C@@H](C(N)=O)CC4)c3n2)C1` [Example 429, (1S,4s)-4-(8-(2-chloro-4-fluorophenylamino)-2-((1R,3S)-3-hydroxy-3-methylcyclohexylamino)-9H-purin-9-yl)cyclohexanecarboxamide] was tested. Which IC50 did it give?
**A.** > 1000 nM

**Q.** With `CC(C)Nc1ncc2nc(Nc3c(F)cc(C#N)cc3Cl)n([C@H]3CC[C@@H](C(N)=O)CC3)c2n1` [Example 430, (1s,4s)-4-(8-(2-chloro-4-cyano-6-fluorophenylamino)-2-(isopropylamino)-9H-purin-9-yl)cyclohexanecarboxamide] as the compound, how does the IC50 read?
**A.** 500 to 1000 nM

**Q.** How did the IC50 turn out when `CC(C)Nc1ncc2nc(Nc3c(Cl)cc(C#N)cc3Cl)n([C@H]3CC[C@@H](C(N)=O)CC3)c2n1` [Example 431, (1s,4s)-4-(8-(2,6-dichloro-4-cyanophenylamino)-2-(isopropylamino)-9H-purin-9-yl)cyclohexanecarboxamide] was run?
**A.** 500 to 1000 nM

**Q.** With `CC[C@@H](CO)Nc1ncc2nc(Nc3c(Cl)cc(C#N)cc3Cl)n([C@H]3CC[C@@H](C(N)=O)CC3)c2n1` [Example 432, (1R,4s)-4-(8-(2,6-dichloro-4-cyanophenylamino)-2-((S)-1-hydroxybutan-2-ylamino)-9H-purin-9-yl)cyclohexanecarboxamide] as the compound, how does the IC50 read?
**A.** 500 to 1000 nM

**Q.** How did the IC50 turn out when `CC[C@@H](CO)Nc1ncc2nc(Nc3c(F)cc(C#N)cc3Cl)n([C@H]3CC[C@@H](C(N)=O)CC3)c2n1` [Example 433, (1R,4s)-4-(8-(2-chloro-4-cyano-6-fluorophenylamino)-2-((S)-1-hydroxybutan-2-ylamino)-9H-purin-9-yl)cyclohexanecarboxamide] was run?
**A.** > 1000 nM

**Q.** How did the IC50 turn out when `NC(=O)[C@H]1CC[C@@H](n2c(Nc3c(F)cc(F)cc3F)nc3cnc(N[C@@H]4CCCC[C@H](O)C4)nc32)CC1` [Example 434, (1S,4s)-4-(2-((1R,3S)-3-hydroxycycloheptylamino)-8-(2,4,6-trifluorophenylamino)-9H-purin-9-yl)cyclohexanecarboxamide] was run?
**A.** > 1000 nM

**Q.** How did the IC50 turn out when `NC(=O)[C@H]1CC[C@@H](n2c(Nc3c(Cl)cccc3Cl)nc3cnc(N[C@@H]4CCCC[C@H](O)C4)nc32)CC1` [Example 435, (1S,4s)-4-(8-(2,6-dichlorophenylamino)-2-((1R,3S)-3-hydroxycycloheptylamino)-9H-purin-9-yl)cyclohexanecarboxamide] was run?
**A.** > 1000 nM

**Q.** With `NC(=O)[C@H]1CC[C@@H](n2c(Nc3c(F)cccc3Cl)nc3cnc(N[C@@H]4CCCC[C@H](O)C4)nc32)CC1` [Example 436, (1S,4s)-4-(8-(2-chloro-6-fluorophenylamino)-2-((1R,3S)-3-hydroxycycloheptylamino)-9H-purin-9-yl)cyclohexanecarboxamide] as the compound, how does the IC50 read?
**A.** > 1000 nM
